Assay results: US20260347348A1, “JAK1/JAK2/TYK2 Inhibitors For Topical Treatment of Dermatological Diseases” (Hangzhou Highlightll Pharmaceutical Co., Ltd, priority 2022, published 2026)
Read-outs that look alike come from different tables or passages of the source.

Columns and labels:
[1] = tested on: TYK2/JAK1/JAK2; assay: TYK2/JAK1/JAK2 biochemical tests, comparative summary
Description: (§1) The tests were conducted by Reaction Biology Corp, Malvern, PA (Anastassiadis et al. Nat Biotechnol. 2011; 29(11):1039-45). The step is briefly described as follows.
(§2) Basic reaction buffer: 20 mM Hepes (pH 7.5), 10 mM MgCl2, 1 mM EGTA, 0.02% Brij35, 0.02 mg/ml BSA, 0.1 mM Na3VO4, 2 mM DTT and 1% DMSO. The required cofactor was added to each kinase reaction respectively.
(§3) • 1. Preparing the designated substrate in the newly prepared basic reaction buffer; • 2. Transferring the required cofactor to the above matrix solution; • 3. Transferring the designated kinase to the substrate solution and mixing well slightly; • 4. Transferring a compound of formulae I-III in DMSO to the kinase reaction mixture with Acoustic technique (Echo550; nanoliter range), culturing for 20 minutes at room temperature; • 5. Introducing ^33P-ATP (specific activity: 10 μCi/μl) to the reaction mixture to trigger a reaction; • 6. Culturing at room temperature and conducting a kinase reaction for 2 hours; • 7. Plotting the reaction on P81 ion exchange paper; • 8. Testing the kinase activity with a filter binding assay.

[2] = target: T1, TYK2 (Homo sapiens, UniProt P29597); assay: TYK2 biochemical test (33P-ATP filter binding kinase assay); conditions: room temperature, 2 hours
T1 sequence (P29597 whole entry): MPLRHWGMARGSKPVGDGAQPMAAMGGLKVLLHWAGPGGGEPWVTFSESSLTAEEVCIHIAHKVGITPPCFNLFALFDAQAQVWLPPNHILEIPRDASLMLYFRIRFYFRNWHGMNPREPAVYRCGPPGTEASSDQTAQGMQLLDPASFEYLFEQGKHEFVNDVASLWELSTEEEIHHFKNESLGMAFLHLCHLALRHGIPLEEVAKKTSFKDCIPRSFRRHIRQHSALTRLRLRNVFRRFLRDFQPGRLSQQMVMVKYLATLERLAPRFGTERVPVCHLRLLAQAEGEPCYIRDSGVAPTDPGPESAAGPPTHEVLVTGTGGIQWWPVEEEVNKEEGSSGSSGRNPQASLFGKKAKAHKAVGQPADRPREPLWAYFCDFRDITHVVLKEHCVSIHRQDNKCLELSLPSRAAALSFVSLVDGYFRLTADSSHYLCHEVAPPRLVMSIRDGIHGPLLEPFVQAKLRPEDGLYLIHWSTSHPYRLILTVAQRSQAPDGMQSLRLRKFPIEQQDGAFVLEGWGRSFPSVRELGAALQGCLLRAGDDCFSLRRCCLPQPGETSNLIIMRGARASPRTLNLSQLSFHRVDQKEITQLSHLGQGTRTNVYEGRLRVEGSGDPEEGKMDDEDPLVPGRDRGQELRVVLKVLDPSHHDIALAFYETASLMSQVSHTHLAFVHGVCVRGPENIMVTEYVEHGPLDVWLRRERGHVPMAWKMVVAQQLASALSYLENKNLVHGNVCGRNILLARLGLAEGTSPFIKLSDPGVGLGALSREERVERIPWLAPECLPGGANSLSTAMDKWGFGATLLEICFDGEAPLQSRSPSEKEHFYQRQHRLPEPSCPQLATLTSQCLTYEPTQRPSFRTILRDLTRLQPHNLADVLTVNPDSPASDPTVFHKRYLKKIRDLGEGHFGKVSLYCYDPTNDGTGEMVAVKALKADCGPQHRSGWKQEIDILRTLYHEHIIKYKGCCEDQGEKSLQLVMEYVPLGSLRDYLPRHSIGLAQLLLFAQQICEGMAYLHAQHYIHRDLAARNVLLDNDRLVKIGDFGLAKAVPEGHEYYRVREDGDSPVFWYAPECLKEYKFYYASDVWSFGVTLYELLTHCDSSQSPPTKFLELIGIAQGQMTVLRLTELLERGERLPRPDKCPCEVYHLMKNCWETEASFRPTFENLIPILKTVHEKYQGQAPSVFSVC
Description: as §1, §2, §3

[3] = target: T2, JAK1 (Homo sapiens, UniProt P23458); assay: JAK1 biochemical test (33P-ATP filter binding kinase assay); conditions: room temperature, 2 hours
T2 sequence (P23458 whole entry): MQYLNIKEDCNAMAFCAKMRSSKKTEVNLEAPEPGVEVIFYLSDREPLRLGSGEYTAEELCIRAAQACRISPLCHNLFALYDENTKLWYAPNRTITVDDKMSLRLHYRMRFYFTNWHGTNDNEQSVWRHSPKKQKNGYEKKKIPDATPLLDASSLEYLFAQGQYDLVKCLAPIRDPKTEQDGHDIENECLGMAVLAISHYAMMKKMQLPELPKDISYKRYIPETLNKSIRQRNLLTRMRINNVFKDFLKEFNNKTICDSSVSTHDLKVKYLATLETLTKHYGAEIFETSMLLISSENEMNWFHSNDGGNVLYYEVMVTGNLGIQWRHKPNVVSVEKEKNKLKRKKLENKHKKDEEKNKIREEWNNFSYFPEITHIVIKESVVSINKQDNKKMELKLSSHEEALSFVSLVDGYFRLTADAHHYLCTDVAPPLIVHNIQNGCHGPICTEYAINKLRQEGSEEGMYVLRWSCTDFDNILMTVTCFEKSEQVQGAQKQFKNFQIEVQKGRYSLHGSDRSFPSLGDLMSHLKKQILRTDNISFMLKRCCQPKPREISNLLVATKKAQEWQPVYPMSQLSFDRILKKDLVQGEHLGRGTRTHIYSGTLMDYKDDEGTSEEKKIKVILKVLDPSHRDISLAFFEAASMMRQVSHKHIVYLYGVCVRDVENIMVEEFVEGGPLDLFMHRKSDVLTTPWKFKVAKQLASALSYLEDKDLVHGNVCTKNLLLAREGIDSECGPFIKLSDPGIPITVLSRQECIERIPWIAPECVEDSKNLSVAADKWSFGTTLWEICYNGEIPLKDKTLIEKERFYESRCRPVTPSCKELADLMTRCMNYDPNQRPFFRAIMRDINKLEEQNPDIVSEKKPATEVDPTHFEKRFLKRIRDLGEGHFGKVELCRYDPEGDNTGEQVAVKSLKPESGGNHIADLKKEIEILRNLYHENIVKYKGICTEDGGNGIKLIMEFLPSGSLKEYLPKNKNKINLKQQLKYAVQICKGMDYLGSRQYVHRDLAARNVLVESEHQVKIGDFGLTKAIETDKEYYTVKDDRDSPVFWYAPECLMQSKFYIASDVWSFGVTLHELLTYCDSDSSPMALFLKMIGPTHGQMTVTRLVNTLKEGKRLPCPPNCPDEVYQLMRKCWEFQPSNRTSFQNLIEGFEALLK
Description: as §1, §2, §3

[4] = target: JAK2 (Homo sapiens, UniProt O60674); assay: JAK2 biochemical test (33P-ATP filter binding kinase assay); conditions: room temperature, 2 hours
Chain of JAK2 (O60674 whole entry): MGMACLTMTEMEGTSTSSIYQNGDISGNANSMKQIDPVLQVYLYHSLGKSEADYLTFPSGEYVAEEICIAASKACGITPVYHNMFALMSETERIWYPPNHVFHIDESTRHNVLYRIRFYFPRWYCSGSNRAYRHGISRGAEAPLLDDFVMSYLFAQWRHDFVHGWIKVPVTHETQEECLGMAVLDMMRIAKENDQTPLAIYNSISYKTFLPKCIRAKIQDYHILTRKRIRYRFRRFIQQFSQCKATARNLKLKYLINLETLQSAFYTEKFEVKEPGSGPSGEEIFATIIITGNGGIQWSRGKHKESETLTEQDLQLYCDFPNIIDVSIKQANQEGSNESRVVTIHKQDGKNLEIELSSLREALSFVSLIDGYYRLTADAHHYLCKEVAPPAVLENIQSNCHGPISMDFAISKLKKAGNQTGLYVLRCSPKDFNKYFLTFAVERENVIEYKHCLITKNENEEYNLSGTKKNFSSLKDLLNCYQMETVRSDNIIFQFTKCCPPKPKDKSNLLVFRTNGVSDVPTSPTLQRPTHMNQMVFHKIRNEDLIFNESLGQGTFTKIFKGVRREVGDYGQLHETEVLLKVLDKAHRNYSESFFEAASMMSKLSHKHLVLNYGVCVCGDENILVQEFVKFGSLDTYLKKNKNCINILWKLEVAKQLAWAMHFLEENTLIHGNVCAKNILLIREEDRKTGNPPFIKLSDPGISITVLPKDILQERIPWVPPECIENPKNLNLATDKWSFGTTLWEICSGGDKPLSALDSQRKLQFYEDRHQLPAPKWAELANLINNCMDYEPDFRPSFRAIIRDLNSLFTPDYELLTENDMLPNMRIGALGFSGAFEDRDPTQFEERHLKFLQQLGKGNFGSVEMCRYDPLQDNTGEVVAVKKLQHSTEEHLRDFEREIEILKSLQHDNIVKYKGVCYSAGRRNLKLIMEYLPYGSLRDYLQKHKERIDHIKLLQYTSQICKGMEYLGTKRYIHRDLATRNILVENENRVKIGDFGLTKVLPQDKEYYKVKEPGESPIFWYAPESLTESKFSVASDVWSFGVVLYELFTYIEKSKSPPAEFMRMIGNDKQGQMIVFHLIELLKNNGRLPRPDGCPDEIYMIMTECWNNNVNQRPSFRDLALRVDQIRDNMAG
Description: as §1, §2, §3

[5] = target: T3, JAK3 (Homo sapiens, UniProt P52333); assay: JAK3 biochemical test (33P-ATP filter binding kinase assay); conditions: room temperature, 2 hours
T3 sequence (P52333 1-1124): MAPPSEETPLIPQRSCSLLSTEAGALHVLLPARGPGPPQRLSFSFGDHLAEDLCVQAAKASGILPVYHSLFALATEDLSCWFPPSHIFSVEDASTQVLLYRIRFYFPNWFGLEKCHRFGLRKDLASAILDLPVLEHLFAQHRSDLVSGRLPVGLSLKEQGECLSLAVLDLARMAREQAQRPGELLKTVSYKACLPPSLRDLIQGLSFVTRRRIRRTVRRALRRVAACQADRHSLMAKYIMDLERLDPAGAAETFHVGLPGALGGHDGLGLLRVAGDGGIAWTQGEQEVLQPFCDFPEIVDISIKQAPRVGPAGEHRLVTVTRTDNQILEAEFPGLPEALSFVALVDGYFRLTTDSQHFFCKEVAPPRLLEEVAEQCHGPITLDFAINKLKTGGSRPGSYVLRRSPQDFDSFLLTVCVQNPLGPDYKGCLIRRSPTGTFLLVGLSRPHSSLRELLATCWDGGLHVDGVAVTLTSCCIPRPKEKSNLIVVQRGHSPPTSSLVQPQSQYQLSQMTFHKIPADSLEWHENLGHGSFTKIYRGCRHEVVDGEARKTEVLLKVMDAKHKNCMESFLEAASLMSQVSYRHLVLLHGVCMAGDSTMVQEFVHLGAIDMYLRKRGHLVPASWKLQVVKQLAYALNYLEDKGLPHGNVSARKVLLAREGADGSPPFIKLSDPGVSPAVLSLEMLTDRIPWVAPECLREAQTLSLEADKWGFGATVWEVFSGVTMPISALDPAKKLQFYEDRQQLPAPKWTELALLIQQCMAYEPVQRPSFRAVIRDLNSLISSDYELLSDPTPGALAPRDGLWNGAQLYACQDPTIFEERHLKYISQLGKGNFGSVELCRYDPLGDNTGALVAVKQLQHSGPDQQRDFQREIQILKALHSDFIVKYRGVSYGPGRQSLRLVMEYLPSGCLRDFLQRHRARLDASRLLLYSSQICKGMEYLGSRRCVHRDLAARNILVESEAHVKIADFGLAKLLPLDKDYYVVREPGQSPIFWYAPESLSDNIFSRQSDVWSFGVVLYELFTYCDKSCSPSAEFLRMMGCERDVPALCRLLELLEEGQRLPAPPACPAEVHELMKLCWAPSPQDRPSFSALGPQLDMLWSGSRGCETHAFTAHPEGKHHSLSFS
Description: as §1, §2, §3

[6] = target: T2, JAK1; assay: JAK1 cellular ELISA assay using PBMC cells (IL-6 stimulated STAT3 phosphorylation); type: cell-based; conditions: IL-6 100 ng/ml, 25 min
Description: Purpose: test cellular JAK1 activity using the IL-6 stimulated STAT3 phosphorylation assay in PBMC cells.
• 1. Plate PBMC cells to 96-well plate at density of ~300,000 cell/well; • 2. Add different concentrations of test article to wells, maintain in incubator at 37° C. and 5% CO2 for 1 hour; • 3. Add IL-6 (final concentration: 100 ng/ml) to stimulate for 25 min in the above incubator; • 4. After stimulation, transfer the suspension to 1.5 mL tube, centrifuge at 200 g for 5 min, collect cells, add 100 μL 1× lysate, lyse on ice for 1 hour; • 5. Centrifuge at 4° C. and 12000 rpm for 10 min, take the supernatant and analyze according to instructions of the ELISA kit.

[7] = Human liver microsome stability assay; type: in vitro ADME; conditions: liver microsomes
Description: The assay was conducted following procedures as below: • 1. Prepared 8 sample plates of 96-well plates, named as T0, T3, T6, T9, T15, T30, NCF30, BLANK. • 2. Dispensed 100 μl/well human microsomes to each plate. • 3. Dispensed 2 μL compound or control working solution/well to each plate (T0, T3, T6, T9, T15, T30, NCF30) except matrix blank and incubation plates at 37° C. for about 10 min. The final concentration of test compound was 1 μM. For T0, added 600 (μL/well) of cold stop solution immediately. • 4. Added 98 μL 100 mM potassium phosphate buffer/well to NCF30 plate, incubated at 37° C., start reaction. • 5. After pre-warming, dispensed NADPH regenerating system to 96-well plate as reservoir according to the plate map. Then added 98 μL/well to every plate (Blank, T30, T15, T9, T6, T3, T0) to start reaction. • 6. The reaction was stopped by the addition of 600 μl of cold stop solution at 0, 3, 6, 9, 15 and 30 minutes. Samples were shaked for 10 min and then centrifuged at 3220 g for 20 min. The supernatant was taken from each well and diluted with dilution solution before being analyzed by LC/MS/MS. • 7. […]
The slope value, k, was determined by linear regression of the natural logarithm of the remaining percentage of the parent drug vs. incubation time curve. The in vitro t1/2 was determined from the slope value: […]

[8] = Mini-pig dermal pharmacokinetic study; type: in vivo, Guangxi Bama mini-pigs; conditions: for AUC(0-t): 15 mg/cm^2, topical ointment
Description: The aim of this study was to obtain the distribution of test articles in mini-pig after topical administration. Test articles were formulated as ointment and then applied to 2 female Guangxi Bama mini-pigs (8-12 kg) (Wujiang Tian yu Biological Technology). Briefly, total area estimated to be approximately 10% of the total body surface area were clipped free of hair before treatment using electric clippers. The test article was dosed evenly to the skin with 15 mg/cm^2 at 0 h, 8 h and 24 h. Test articles were removed before next dosing. Blood and skin samples were collected at 24 h (pre-dosing), 25 h, 28 h, 32 h, 48 h and 96 h. The blood was taken via peripheral vein of each animal into pre-chilled tube containing potassium (K2) EDTA as anticoagulant. Exposed skin was washed using ethanol and then wiped with dry cotton swab before skin sample collection. Eight samples of dosing skin were drilled with a biopsy punch (0.7 cm diameter) for each time point. Epidermis and dermis were separated and the eight samples from the same time point were pooled together and homogenized. All the above samples and homogenate were quantified by LC-MS/MS analysis.

[9] = target: T1, TYK2; assay: TYK2 cellular ELISA assay using NK92 cells (IL-12 and IL-18 stimulated IFNγ excretion); type: cell-based; conditions: IL-12 2 ng/ml and IL-18 5 ng/ml, 24 hours
Description: Purpose: test cellular TYK2 activity using IL-12 and IL-18 stimulated IFNγ excretion assay in NK92 cells.
• 1. Replace NK92 cell media with IL-2 by media without IL-2, maintain overnight; • 2. Plate NK92 cells to 96-well plate at density of ~150,000 cell/well; • 3. Add different concentrations of test article to wells, maintain in incubator at 37° C. and 5% CO2 for 1 hour; • 4. Add IL-12 (final concentration: 2 ng/ml) and IL-18 (final concentration: 5 ng/ml) to stimulate for 24 hours in the above incubator; • 5. After 24 hours, centrifuge at 2000 rpm for 5 min, take the supernatant and analyze according to instructions of the ELISA kit.

[10] = topical formulation, 1.2-37.6 g per application, twice a day; cited from earlier work
[11] = tested on: psoriasis; conditions: cited from earlier work

SMILES: CCS(=O)(=O)N1CC(CC#N)(n2cc(-c3nc(Nc4cnn(C)c4)ncc3C)cn2)C1 [Compound 18, 2-(1-(ethylsulfonyl)-3-(4-(5-methyl-2-((1-methyl-1H-pyrazol-4-yl)amino)pyrimidin-4-yl)-1H-pyrazol-1-yl)azetidin-3-yl)acetonitrile]
- TYK2/JAK1/JAK2 inhibition (in words) [1]: potent TYK2/JAK1/JAK2 inhibitors
- IC50 [2]: < 1 nM
- IC50 [3]: < 1 nM
- IC50 [4]: < 1 nM
- IC50 [5]: > 10 nM
- IC50 [6]: < 500 nM

SMILES: Cc1cnc(Nc2cnn(C)c2)nc1-c1cnn([C@H](CC#N)C2CCCC2)c1 [Compound 4, (R)-3-cyclopentyl-3-(4-(5-methyl-2-((1-methyl-1H-pyrazol-4-yl)amino)pyrimidin-4-yl)-1H-pyrazol-1-yl) propanenitrile]
- TYK2/JAK1/JAK2 inhibition (in words) [1]: potent TYK2/JAK1/JAK2 inhibitors
- half-life at 1 µM [7]: 21 min
- microsomal CLint at 1 µM ([7]; read-out: in vitro CLint(mic)): 65.9 µL/min/mg
- IC50 [2]: < 1 nM
- IC50 [3]: < 1 nM
- AUC(0-t) ([8]; minipig, plasma, topical or ocular, 15 mg/cm^2 at 0 h, 8 h and 24 h, plasma, read-out: Plasma AUC0-last): 0.103 µg·h/mL
- AUC(0-t) ([8]; minipig, topical or ocular, 15 mg/cm^2 at 0 h, 8 h and 24 h, dermis, read-out: Dermis AUC0-last): 517 µg·h/mL
- AUC(0-t) ([8]; minipig, topical or ocular, 15 mg/cm^2 at 0 h, 8 h and 24 h, epidermis, read-out: Epidermis AUC0-last): 3520 µg·h/mL
- Kp ([8]; minipig, topical or ocular, topical ointment, 15 mg/cm^2 at 0 h, 8 h and 24 h, read-out: Dermis/Plasma ratio (AUC)): 5020
- systemic exposure and skin distribution (in words) ([8]; topical administration): minimal systemic exposure and enrichment in dermis and epidermis
- IC50 [9]: < 10 nM
- IC50 [6]: < 500 nM

SMILES: N#CC[C@H](C1CCCC1)n1cc(-c2ncnc3[nH]ccc23)cn1 [ruxolitinib]
- Cmax [10]: 449 ± 883 nM

SMILES: CNC(=O)c1nnc(NC(=O)C2CC2)cc1Nc1cccc(-c2ncn(C)n2)c1OC [deucravacitinib]
- Phase 2 and Phase 3 results in patients with psoriasis [11]: positive Phase 2 and Phase 3 results
